Results on 17 compounds are retold here after ChEMBL document CHEMBL4831477, “Structure-Enabled Discovery of Novel Macrocyclic Inhibitors Targeting Glutaminase 1 Allosteric Binding Site” (J Med Chem, 2021).

Values after ≈ are worked out from the molar mass of the structure shown.

For orientation: IC50 means the concentration at which inhibition is half-maximal. Usually logD stands for the decadic logarithm of the distribution of all forms, ionised or not, between an organic phase and buffer at a given pH. For orientation: ΔTm means the change in melting temperature against a reference sample.

Data set [1] addresses T1, Glutaminase kidney isoform, mitochondrial (Homo sapiens, UniProt O94925).
T1 sequence (O94925 whole entry): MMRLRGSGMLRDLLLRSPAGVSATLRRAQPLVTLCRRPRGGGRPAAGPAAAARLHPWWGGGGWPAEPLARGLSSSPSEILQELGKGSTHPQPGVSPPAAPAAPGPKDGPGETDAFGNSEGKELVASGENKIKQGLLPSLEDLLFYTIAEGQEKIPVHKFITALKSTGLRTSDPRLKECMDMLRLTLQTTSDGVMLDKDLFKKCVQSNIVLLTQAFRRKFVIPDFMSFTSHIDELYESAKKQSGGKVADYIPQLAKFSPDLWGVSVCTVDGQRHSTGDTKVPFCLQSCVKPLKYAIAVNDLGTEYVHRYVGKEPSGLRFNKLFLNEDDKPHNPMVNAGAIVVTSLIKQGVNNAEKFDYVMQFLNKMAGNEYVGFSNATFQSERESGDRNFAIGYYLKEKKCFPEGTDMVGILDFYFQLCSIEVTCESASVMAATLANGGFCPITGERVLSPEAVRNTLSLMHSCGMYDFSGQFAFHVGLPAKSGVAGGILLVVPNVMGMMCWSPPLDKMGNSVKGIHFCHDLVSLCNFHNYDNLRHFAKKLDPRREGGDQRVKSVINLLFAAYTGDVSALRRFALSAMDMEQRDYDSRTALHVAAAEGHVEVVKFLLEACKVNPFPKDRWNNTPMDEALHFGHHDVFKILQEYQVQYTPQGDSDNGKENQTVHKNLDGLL
Nature of the data set: Inhibition of recombinant human GLS1 expressed in Escherichia coli strain BL21 (DE3) preincubated for 10 mins before glutamine addition and measured after 60 mins by bovine liver glutamate dehydrogenase based coupled enzyme assay.

Data set [2] relates to HCT-116. The data set can be described thus: Antiproliferative activity against human HCT116 cells assessed as reduction in cell viability incubated for 72 hrs by MTT assay. Conditions: HCT-116, 72 h. Format: functional, cell-based. In general terms: Tetrazolium dyes change colour on reduction, which living cells bring about.
A further data set deals with MDA-MB-436. The data set can be described thus: Antiproliferative activity against human MDA-MB-436 cells assessed as reduction in cell viability incubated for 72 hrs by MTT assay. Format: functional, cell-based. Conditions: MDA-MB-436, 72 h.
Data set [3] in a line: Distribution coefficient, logD of the compound at pH 7.4 by LC-MS based shake-flask method. Conditions: octanol/water, read-out: logD. The class given is physicochemical.
Data set [4] in a line: Intrinsic aqueous solubility of compound at pH 7.4 by LC-MS based shake-flask method. The class given is physicochemical. Conditions: read-out: Intrinsic_solubility.
For data set [5], the target named is T2, Glutaminase kidney isoform, mitochondrial (Homo sapiens) (UniProt O94925).
T2 sequence (whole entry): T1 sequence (O94925 whole entry)
Description: Binding affinity to human GLS1 expressed in Escherichia coli strain BL21 (DE3) assessed as change in melting temperature by SYPRO orange dye based protein thermal shift assay

Data set [6] has as its system HCT-116. Nature of the data set: Inhibition of colony formation in human HCT-116 cells incubated for 14 days by crystal violet staining based assay. The class given is functional, cell-based. Conditions: dose 0.1-2 µM, time 14.0 day.

As to `O=C1Cc2ccc(cc2)OC/C=C/COc2ccc(cc2)CC(=O)Nc2nnc(s2)CCCCc2nnc(s2)N1`, the IC50 in data set [1] came to 76 nM; with HCT-116 [2] it was 420 nM; with MDA-MB-436 it was 790 nM. The logD in data set [3] stood at 2.98. The solubility thermodynamic in data set [4] amounted to 0.36 µg/mL (≈ 0.624 µM). The thermal shift (ΔTm) in data set [5] is 16.1 °C.
With `O=C1CCc2cccc(c2)OCCCC/C=C/CCCC(=O)Nc2nnc(s2)CCCCc2ccc(nn2)N1`, the figures for the IC50 (in data set [1]; with HCT-116 [2]; in the data set with MDA-MB-436) were 25 nM, 140 nM and 510 nM, respectively. Moreover, in the data set with HCT-116 [6], the inhibition result was “Dose-Dependent Effect”. In data set [3], the logD stood at 4.29. Also, the solubility thermodynamic in data set [4] was determined as 1.84 µg/mL (≈ 3.35 µM). In addition, the ΔTm in data set [5] was found to be 16.7 °C.
On to `O=C1Cc2ccc(cc2)OCCC/C=C/CCCOc2ccc(cc2)CC(=O)Nc2nnc(s2)CCCCc2nnc(s2)N1`, for which the IC50 in data set [1] came out at 4700 nM; in the data set on HCT-116 [2], 16200 nM; in the data set with MDA-MB-436, 38300 nM. Also, the logD in data set [3] worked out at 3.62. Moreover, in data set [4], the solubility thermodynamic was determined as 0.29 µg/mL (≈ 0.458 µM). Moreover, in data set [5], the ΔTm was 0.19 °C.
On to `C=CCCOc1cccc(CC(=O)Nc2ccc(CCCCc3nnc(NC(=O)Cc4cccc(OCCC=C)c4)s3)nn2)c1`, for which the IC50 in data set [1] is 68 nM.
On to `O=C1Cc2cccc(c2)OC/C=C/COc2cccc(c2)CC(=O)NC2=NN=C(CCCCC3=NN=C(N1)S3)S2`, for which the figures for the IC50 (in data set [1]; with HCT-116 [2]; with MDA-MB-436) were 41 nM, 280 nM and 510 nM, respectively. In the data set with HCT-116 [6], the inhibition entry is “Dose-Dependent Effect”. Also, the logD in data set [3] was 2.9. Besides, the solubility thermodynamic in data set [4] amounted to 0.34 µg/mL (≈ 0.59 µM). The ΔTm in data set [5] came out at 16.5 °C.
As to `O=C1Cc2cccc(c2)OCCCC/C=C/CCCCOc2cccc(c2)CC(=O)NC2=NN=C(CCCCC3=NN=C(N1)S3)S2`, the results for the half-inhibitory concentration (IC50) (in data set [1]; in the data set on HCT-116 [2]; in the data set on MDA-MB-436) were 225 nM, 7080 nM and 6490 nM, respectively. The logD in data set [3] turned out to be 3.85. For the same compound, the solubility thermodynamic in data set [4] came out at 0.22 µg/mL (≈ 0.333 µM). In addition, the ΔTm in data set [5] amounted to 16.6 °C.
In the case of `O=C(Cc1ccccc1)Nc1nnc(CCSCCc2nnc(NC(=O)Cc3ccccc3)s2)s1`, the IC50 in the data set with HCT-116 [2] stood at 3910 nM; with MDA-MB-436 it was 5080 nM. The logD in data set [3] was 2.86.
For the compound `O=C1Cc2ccccc2OCCCC/C=C/CCCCOc2cccc(c2)CC(=O)Nc2nnc(s2)CCCCc2ccc(nn2)N1`, the IC50 in data set [1] came out at 37 nM; with HCT-116 [2] it was 380 nM; with MDA-MB-436, 710 nM. Moreover, the logD in data set [3] worked out at 3.72. In data set [4], the solubility thermodynamic amounted to 1.09 µg/mL (≈ 1.66 µM). In data set [5], the ΔTm was found to be 17.7 °C.
On to `O=C1Cc2cccc(c2)OCC/C=C/CCOc2cccc(c2)CC(=O)NC2=NN=C(CCCCC3=NN=C(N1)S3)S2`, for which the values for the IC50 (in data set [1]; with HCT-116 [2]; in the data set with MDA-MB-436) were 47 nM, 350 nM and 470 nM, respectively. Moreover, the logD in data set [3] came to 3.16. Also, in data set [4], the solubility thermodynamic worked out at 0.31 µg/mL (≈ 0.513 µM). The ΔTm in data set [5] came out at 15.9 °C.
In the case of `O=C1Cc2cccc(c2)OCCC/C=C/CCCOc2cccc(c2)CC(=O)Nc2nnc(s2)CCCCc2ccc(nn2)N1`, the results for the IC50 (in data set [1]; in the data set on HCT-116 [2]; with MDA-MB-436) were 28 nM, 190 nM and 570 nM, respectively. In the data set with HCT-116 [6], the inhibition result was “Dose-Dependent Effect”. Further, the logD in data set [3] worked out at 3.48. The solubility thermodynamic in data set [4] worked out at 1.62 µg/mL (≈ 2.58 µM). Also, in data set [5], the ΔTm turned out to be 18.3 °C.
For `O=C1Cc2ccc(cc2)OCC/C=C/CCOc2ccc(cc2)CC(=O)Nc2nnc(s2)CCCCc2nnc(s2)N1`, the IC50 is 80 nM in data set [1], 960 nM in the data set with HCT-116 [2] and 1900 nM with MDA-MB-436. The inhibition entry in the data set with HCT-116 [6] was “Dose-Dependent Effect”. Besides, the logD in data set [3] was determined as 3.52. For the same compound, the solubility thermodynamic in data set [4] is 0.33 µg/mL (≈ 0.546 µM). The ΔTm in data set [5] came out at 13.9 °C.
For `O=C1CCc2cccc(c2)OCC/C=C/CCCC(=O)Nc2nnc(s2)CCCCc2ccc(nn2)N1`, the IC50 in data set [1] came out at 372 nM; with HCT-116 [2], 1450 nM; in the data set with MDA-MB-436, 6300 nM. Moreover, the logD in data set [3] stood at 3.08. Further, the solubility thermodynamic in data set [4] came out at 2.05 µg/mL (≈ 3.94 µM). Moreover, in data set [5], the ΔTm amounted to 11.7 °C.
With `O=C1Cc2cccc(c2)OCCC/C=C/CCCOc2cccc(c2)CC(=O)NC2=NN=C(CCCCC3=NN=C(N1)S3)S2`, the figures for the IC50 (in data set [1]; with HCT-116 [2]; in the data set on MDA-MB-436) were 82 nM, 510 nM and 820 nM, respectively. Further, in data set [3], the logD came to 3.49. For the same compound, the solubility thermodynamic in data set [4] was found to be 0.25 µg/mL (≈ 0.395 µM). Also, the ΔTm in data set [5] came out at 16.7 °C.
For the compound `O=C1Cc2ccc(cc2)OCCCC/C=C/CCCCOc2ccc(cc2)CC(=O)Nc2nnc(s2)CCCCc2nnc(s2)N1`, the IC50 in data set [1] came to 193 nM; in the data set on HCT-116 [2], 1480 nM; in the data set on MDA-MB-436, 2510 nM. Besides, in data set [3], the logD worked out at 3.91. In addition, the solubility thermodynamic in data set [4] is 0.25 µg/mL (≈ 0.378 µM). In data set [5], the ΔTm was found to be 12.9 °C.
Regarding `O=C1CCCC/C=C/CCCCOc2cccc(c2)CCC(=O)Nc2nnc(s2)CCCCc2ccc(nn2)N1`, the 50% inhibitory concentration (IC50) in data set [1] turned out to be 123 nM; in the data set on HCT-116 [2], 680 nM; with MDA-MB-436 it was 1820 nM. Besides, in data set [3], the logD was determined as 3.89. The solubility thermodynamic in data set [4] turned out to be 1.97 µg/mL (≈ 3.5 µM). In addition, in data set [5], the ΔTm came out at 16.3 °C.
With `O=C1Cc2cccc(c2)OC/C=C/COc2cccc(c2)CC(=O)Nc2nnc(s2)CCCCc2ccc(nn2)N1`, the IC50 came to 32 nM in data set [1], 260 nM with HCT-116 [2] and 640 nM in the data set on MDA-MB-436. For the same compound, in the data set on HCT-116 [6], the inhibition result is “Dose-Dependent Effect”. The logD in data set [3] was found to be 2.79. Also, the solubility thermodynamic in data set [4] came out at 2.16 µg/mL (≈ 3.78 µM). Besides, in data set [5], the ΔTm came out at 17.2 °C.
Take `O=C1CC/C=C/CCC(=O)Nc2cccc(c2)CC(=O)Nc2nnc(s2)CCCCc2ccc(nn2)NC(=O)Cc2cccc(c2)N1`: the IC50 in data set [1] stood at 75 nM; in the data set on HCT-116 [2], 520 nM; in the data set on MDA-MB-436 it was 840 nM. Further, the inhibition result with HCT-116 [6] is “Dose-Dependent Effect”. Further, the logD in data set [3] came to 2.53. In data set [4], the solubility thermodynamic amounted to 2.34 µg/mL (≈ 3.58 µM). The ΔTm in data set [5] stood at 15.9 °C.
